# Source: patent publication US8975415B2, “Chromane compounds” (CoMentis, Inc., priority 2012, dated 2015)
# Structures can show the parent of a compound that is named as a salt. Where two headings read alike, the source gives them in different places.
# Columns and labels:
# [1] = molecular target: hERG potassium channel (Homo sapiens (Human), UniProt Q12809); test: hERG inhibition, automated planar patch-clamp in hERG-expressing CHO cells; conditions: for selectivity ratio: human, CHO-K1 cells stably expressing hERG, pH 7.4
# [2] = molecular target: T1, BACE1 (Homo sapiens (Human), UniProt P56817); test: Measurement of Aβ production inhibition in cell (SK-N-BE(2) neuroblastoma cells, Aβ40 ELISA); conditions: SK-N-BE(2) cells, 6 hours
# Target sequence in this assay (P56817 46-501): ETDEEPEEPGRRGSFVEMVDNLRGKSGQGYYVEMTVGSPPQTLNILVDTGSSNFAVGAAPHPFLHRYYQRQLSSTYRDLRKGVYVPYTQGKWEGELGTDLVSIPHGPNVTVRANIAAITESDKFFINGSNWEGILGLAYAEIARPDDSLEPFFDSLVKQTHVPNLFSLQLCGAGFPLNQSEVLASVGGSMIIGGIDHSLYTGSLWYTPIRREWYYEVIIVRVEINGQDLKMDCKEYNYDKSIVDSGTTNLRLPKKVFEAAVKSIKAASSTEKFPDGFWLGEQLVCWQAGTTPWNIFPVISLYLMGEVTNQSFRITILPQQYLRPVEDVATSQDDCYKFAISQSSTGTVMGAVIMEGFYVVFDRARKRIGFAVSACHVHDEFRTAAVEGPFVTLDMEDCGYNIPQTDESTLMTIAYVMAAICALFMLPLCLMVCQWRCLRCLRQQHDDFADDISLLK
# [3] = molecular target: T1, BACE1; test: Measurement of BACE1 inhibition by fluorescence resonance energy transfer (FRET), MCA substrate; conditions: for IC50: read-out: Test Example 1 IC50, MCA-SEVNLDAEFK(DNP)-NH2 substrate, pH 4.4
# Target sequence in this assay (P56817 75-416): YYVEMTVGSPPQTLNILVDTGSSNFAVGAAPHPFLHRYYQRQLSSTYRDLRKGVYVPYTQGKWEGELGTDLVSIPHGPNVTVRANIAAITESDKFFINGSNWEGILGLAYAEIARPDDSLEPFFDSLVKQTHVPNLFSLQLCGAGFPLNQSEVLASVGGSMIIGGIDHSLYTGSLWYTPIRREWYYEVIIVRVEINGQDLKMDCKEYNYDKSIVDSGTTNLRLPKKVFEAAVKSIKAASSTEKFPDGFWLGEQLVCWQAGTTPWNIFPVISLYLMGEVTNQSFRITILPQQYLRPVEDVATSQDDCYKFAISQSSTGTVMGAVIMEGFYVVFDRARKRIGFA
# [4] = read-out: Test Example 5 hERG IC50, whole-cell patch clamp, room temperature
# [5] = Test Example 3 IC50, Aβ40 production
# [6] = read-out: Test Example 1 BACE1 MCA Ki, FRET, MCA substrate
# hERG potassium channel, sequence (Q12809 whole entry): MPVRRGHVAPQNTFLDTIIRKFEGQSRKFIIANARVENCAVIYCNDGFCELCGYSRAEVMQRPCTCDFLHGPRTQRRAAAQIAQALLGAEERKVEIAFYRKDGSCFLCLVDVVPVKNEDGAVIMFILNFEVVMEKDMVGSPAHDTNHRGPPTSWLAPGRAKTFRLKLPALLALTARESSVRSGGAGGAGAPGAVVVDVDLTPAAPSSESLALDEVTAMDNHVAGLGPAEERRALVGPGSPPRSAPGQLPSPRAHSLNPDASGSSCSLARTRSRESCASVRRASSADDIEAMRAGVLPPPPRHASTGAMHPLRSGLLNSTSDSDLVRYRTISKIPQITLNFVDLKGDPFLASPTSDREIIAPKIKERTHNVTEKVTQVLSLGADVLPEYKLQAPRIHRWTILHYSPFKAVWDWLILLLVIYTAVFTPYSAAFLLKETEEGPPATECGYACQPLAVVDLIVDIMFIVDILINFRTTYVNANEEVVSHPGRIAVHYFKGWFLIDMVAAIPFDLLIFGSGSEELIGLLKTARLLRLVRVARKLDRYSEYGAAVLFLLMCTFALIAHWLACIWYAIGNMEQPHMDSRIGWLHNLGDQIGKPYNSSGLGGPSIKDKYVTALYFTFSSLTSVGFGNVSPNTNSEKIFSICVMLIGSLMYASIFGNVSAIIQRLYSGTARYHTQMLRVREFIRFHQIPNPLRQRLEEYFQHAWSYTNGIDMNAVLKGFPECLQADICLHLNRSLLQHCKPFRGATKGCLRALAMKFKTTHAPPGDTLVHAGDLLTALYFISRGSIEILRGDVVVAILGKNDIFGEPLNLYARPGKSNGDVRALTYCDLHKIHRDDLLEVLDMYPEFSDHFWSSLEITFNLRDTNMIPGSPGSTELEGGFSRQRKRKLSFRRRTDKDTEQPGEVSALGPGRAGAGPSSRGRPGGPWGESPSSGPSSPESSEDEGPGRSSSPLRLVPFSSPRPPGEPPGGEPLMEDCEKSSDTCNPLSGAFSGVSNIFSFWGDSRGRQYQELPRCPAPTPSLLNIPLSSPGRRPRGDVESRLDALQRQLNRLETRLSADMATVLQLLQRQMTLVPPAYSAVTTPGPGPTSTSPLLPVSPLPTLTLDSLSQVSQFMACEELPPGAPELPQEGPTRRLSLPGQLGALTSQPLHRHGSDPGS
Structure (SMILES),"IC50 [1, 4]","IC50 [2, 5]",IC50 ([3]; FRET),further results
COc1cnc(C(=O)Nc2ccc3c(c2)C2(COC(N)=N2)C2(COC2)C(C)(C)O3)cn1 (stereo not drawn) [Example 227],> 10000 nM,–,–,–
NC1=NC2(CO1)c1cc(-c3cncc(OCC(F)F)c3)ccc1OCC21CC1 (stereo not drawn) [RP 59],6900 nM,76 nM,1110 nM,–
"Cc1cncc(-c2ccc3c(c2)C2(COC(N)=N2)C2(COC2)C2(CCC2)O3)c1 (stereo not drawn) [RP 75, 6′-(5-methylpyridin-3-yl)trispiro[cyclobutane-1,2′-chromene-4′,4″-[1,3]oxazole-3′,3′″-oxetan]-2″-amine]",> 10000 nM,1100 nM,3670 nM,–
Cc1cnnc(-c2ccc3c(c2)C2(COC(N)=N2)C2(COC2)C2(CCC2)O3)c1 (stereo not drawn) [RP 76],> 10000 nM,–,13400 nM,–
CCC1Oc2ccc(-c3cncnc3)cc2C2(COC(N)=N2)C12COC2 (stereo not drawn) [RP 84],> 10000 nM,410 nM,735 nM,–
"CC1(C)Oc2ccc(-c3cncnc3)cc2C2(CSC(N)=N2)C12COC2 (stereo not drawn) [RP 54, 2′,2′-dimethyl-6′-(pyrimidin-5-yl)dispiro[oxetane-3,3′-chromene-4′,4″-[1,3]thiazol]-2″-amine hydrochloride]",> 10000 nM,79 nM,406 nM,–
"CC(C)Cc1ccc2c(c1)C1(COC(N)=N1)C1(COC1)C1(CCC1)O2 (stereo not drawn) [RP 46, 6′-isobutyltrispiro[cyclobutane-1,2′-chromene-4′,4″-[1,3]oxazole-3′,3′″-oxetan]-2″-amine]",> 10000 nM,1400 nM,8940 nM,–
"NC1=NC2(CO1)c1cc(Br)ccc1OC(CC1CC1)C21COC1 (single isomer, unassigned) [RP 16b]",> 10000 nM,4800 nM,4570 nM,–
"NC1=NC2(COC1)c1cc(-c3cncnc3)ccc1OCC21CC1 (stereo not drawn) [RP 215, 6′-(pyrimidin-5-yl)-6″H-dispiro[cyclopropane-1,3′-chromene-4′,3″-[1,4]oxazin]-5″-amine]",> 10000 nM,240 nM,1210 nM,–
NC1=NC2(CO1)c1cc(-c3cncc(C(F)F)c3)ccc1OC1(CCC1)C21COC1 (stereo not drawn) [RP 118],> 10000 nM,990 nM,1810 nM,–
NC1=NC2(CO1)c1cc(-c3cccnc3)ccc1OC1(CCC1)C21COC1 (stereo not drawn) [RP 209],> 10000 nM,830 nM,2000 nM,–
CCOc1cncc(-c2ccc3c(c2)C2(COC(N)=N2)C2(CC2)CO3)c1 (stereo not drawn) [RP 106],5750 nM,160 nM,1830 nM,–
NC1=NC2(CO1)c1cc(-c3cncnc3)ccc1OCC21CCC1 (stereo not drawn) [RP 101],5280 nM,–,7650 nM,–
COc1cccnc1Nc1ccc2c(c1)C1(COC(N)=N1)C1(COC1)C1(CCC1)O2 (stereo not drawn) [RP 45],> 10000 nM,57 nM,1040 nM,–
C[C@H]1Oc2ccc(-c3cccnc3F)cc2[C@@]2(COC(N)=N2)C12COC2 (racemic) [RP 77],–,–,–,IC50 [1]: > 10000 nM
NC1=NC2(c3cc(-c4cncnc4)ccc3OCC23CC3)c2cccc(F)c21 (stereo not drawn) [RP 199],4250 nM,240 nM,736 nM,–
NC1=NC2(CO1)c1cc(-c3cncnc3)ccc1OC1(CCC1)C21COC1 (stereo not drawn) [RP 5],> 10000 nM,590 nM,1560 nM,–
NC1=NC2(CO1)c1cc(-c3cncnc3)ccc1OCC21CC(F)(F)C1 (stereo not drawn) [RP 208],> 10000 nM,6100 nM,7760 nM,–
NC1=NC2(CO1)c1cc(-c3cccnc3F)ccc1OC1(CCC1)C21COC1 (stereo not drawn) [RP 71],> 10000 nM,110 nM,1080 nM,–
CC1(C)Oc2ccc(NC(=O)c3ccc(F)cn3)cc2[C@@]2(COC(N)=N2)C12CC2 [Example 222],> 10000 nM,0.62 nM,138 nM,"selectivity ratio [1]: > 109; Ki [3, 6]: 91.5 nM"
"NC1=NC2(CO1)c1cc(-c3cnc4[nH]ccc4c3)ccc1OCC21CC1 (stereo not drawn) [RP 61, 6′-(1H-pyrrolo[2,3-b]pyridin-5-yl)dispiro[cyclopropane-1,3′-chromene-4′,4″-[1,3]oxazol]-2″-amine]",9220 nM,350 nM,–,–

Structure (SMILES),"IC50 [1, 4]","IC50 [2, 5]",IC50 ([3]; FRET),further results
NC1=NC2(CO1)c1cc(-c3cncnc3)ccc1OC(C1CC1)C21COC1 (stereo not drawn) [RP 88],> 10000 nM,1400 nM,2510 nM,–
"NC1=NC2(CO1)c1cc(Nc3ncccc3Cl)ccc1OCC21COC1 (stereo not drawn) [RP 43, 6′-(3-chloropyridin-2-yl)aminodispiro[1,3-oxazole-4,4′-chromene-3′,3″-oxetane]-2-amine]",> 10000 nM,1400 nM,1960 nM,–
CC(C)CC1Oc2ccc(-c3cncnc3)cc2C2(COC(N)=N2)C12COC2 (stereo not drawn) [RP 90],> 10000 nM,–,901 nM,–
Cc1cc(C#N)cnc1C(=O)Nc1ccc2c(c1)C1(COC(N)=N1)C1(CC1)CO2 (stereo not drawn) [RP 191],> 10000 nM,–,–,–
COc1cncc(-c2ccc3c(c2)C2(COC(N)=N2)C2(CC2)CO3)c1 (stereo not drawn) [RP 105],7900 nM,340 nM,2940 nM,–
NC1=NC2(CO1)c1cc(-c3cncnc3)ccc1OC(Cc1ccccc1)C21COC1 (stereo not drawn) [RP 202],7730 nM,–,145 nM,"IC50 ([2]; read-out: Test Example 3 IC50, Aβ40 production): 26 nM; Ki [3, 6]: 113 nM"
N#Cc1cnc(C(=O)Nc2ccc3c(c2)C2(COC(N)=N2)C2(CC2)CO3)c(Cl)c1 (stereo not drawn) [RP 192],> 10000 nM,–,318 nM,"Ki [3, 6]: 280 nM"
NC1=NC2(CO1)c1cc(-c3cncnc3)ccc1OCC21CC1 (stereo not drawn) [RP 100],> 10000 nM,250 nM,2620 nM,–
CC#Cc1cncc(-c2ccc3c(c2)C2(CSC(N)=N2)C2(COC2)CO3)c1 (stereo not drawn) [RP 68],6050 nM,500 nM,345 nM,–
NC1=NC2(CO1)c1cc(-c3cncnc3)ccc1OC(CC1CC1)C21COC1 (stereo not drawn) [RP 204],> 10000 nM,240 nM,388 nM,–
CC1(C)Oc2ccc(Br)cc2C2(CSC(N)=N2)C12COC2 (stereo not drawn) [RP 42],> 10000 nM,5900 nM,16100 nM,–
CC#Cc1cncc(-c2ccc3c(c2)C2(COC(N)=N2)C2(COC2)C(CC)O3)c1 (stereo not drawn) [RP 86],7940 nM,58 nM,143 nM,"Ki [3, 6]: 107 nM"
"NC1=NC2(c3cc(-c4cncnc4)ccc3OCC23CC3)C(F)(F)CS1 (stereo not drawn) [RP 198, 5″,5″-difluoro-6′-(pyrimidin-5-yl)-5″,6″-dihydrodispiro[cyclopropane-1,3′-chromene-4′,4″-[1,3]thiazin]-2″-amine]",> 1000 nM,–,14900 nM,–
NC1=NC2(CO1)c1cc(Br)ccc1OC1(CCCC1)C21COC1 (stereo not drawn) [RP 10],> 10000 nM,–,7210 nM,–
"CC1(C)Cc2ccc(NC(=O)c3ccc(Cl)cn3)cc2C2(COC(N)=N2)C1 (racemic) [WO2011/123674 Example 89, reference compound]",–,–,–,IC50 [1]: 440 nM; selectivity ratio [1]: 1.8; Ki [3]: 241 nM
"NC1=NC2(CO1)c1cc(Br)ccc1OC(CC1CC1)C21COC1 (single isomer, unassigned) [RP 16a]",> 10000 nM,–,9540 nM,–
"Cc1cnc(F)c(-c2ccc3c(c2)C2(COC(N)=N2)C2(COC2)C2(CCC2)O3)c1 (stereo not drawn) [RP 116, 6′-(2-fluoro-5-methylpyridin-3-yl)trispiro[cyclobutane-1,2′-chromene-4′,4″-[1,3]oxazole-3′,3′″-oxetan]-2″-amine]",> 10000 nM,–,–,–
C[C@@H]1Oc2ccc(-c3cccnc3F)cc2[C@@]2(COC(N)=N2)C12COC2 (racemic) [RP 79],> 10000 nM,–,–,–
"NC1=NC2(CO1)c1cc(-c3cncc(C#CC4CC4)c3)ccc1OC1(CCC1)C21COC1 (stereo not drawn) [RP 48, 6′-[5-(cyclopropylethynyl)pyridin-3-yl]trispiro[cyclobutane-1,2′ chromene-4′,4″-[1,3]oxazole-3′,3′″-oxetan]-2″-amine]",–,690 nM,1130 nM,–
Cc1cccc(-c2ccc3c(c2)C2(COC(N)=N2)C2(COC2)C2(CCC2)O3)c1 (stereo not drawn) [RP 127],–,1800 nM,2270 nM,–
"Cc1cnc(C(=O)Nc2ccc3c(c2)C2(COC(N)=N2)CC(C)(C)C3)cn1 (racemic) [WO2011/123674 Example 98, reference compound]",–,–,–,IC50 [1]: 9460 nM; selectivity ratio [1]: 2.3; Ki [3]: 4090 nM
